The target of this assay is T1, HNF4α (hepatocyte nuclear factor 4α) (Homo sapiens, UniProt P41235).
T1 sequence (P41235 147-377 limits assumed): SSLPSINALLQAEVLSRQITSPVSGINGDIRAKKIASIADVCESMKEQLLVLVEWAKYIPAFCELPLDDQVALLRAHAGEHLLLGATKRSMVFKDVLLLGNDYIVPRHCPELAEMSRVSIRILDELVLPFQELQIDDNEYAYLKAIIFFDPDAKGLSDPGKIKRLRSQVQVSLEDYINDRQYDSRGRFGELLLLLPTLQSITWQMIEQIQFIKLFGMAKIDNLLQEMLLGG
Description: microscale thermophoresis. Type of assay: binding. On the technique in general: In MST a laser heats a spot of the sample, and binding alters the fluorescence response.

Molecules are shown by their SMILES. pKd: −log10 of the molar value.

Broadly, the pKd is −log10 of the Kd, conventionally taken in molar units. The low end stands for a high Kd, the high end for a low Kd. Compound `O=C(/C=C/c1ccc(O)c(O)c1)O[C@@H]1C[C@@](OC(=O)/C=C/c2ccc(O)c(O)c2)(C(=O)O)C[C@@H](O)[C@@H]1O` [cynarin] showed a negative-log Kd (pKd) of 2.51.
As for `COc1c(/C=C/C(=O)c2ccc(O)cc2)ccc(O)c1O` [licochalcone B], the figure is 4.11; as for `O=C(/C=C/c1ccc(O)c(O)c1)O[C@H](Cc1ccc(O)c(O)c1)C(=O)O` [rosmarinic acid], 4.46.
